The values that follow come from patent US6469162B1, “Compounds with chelation affinity and selectivity for first transition series elements: use in medical therapy and diagnosis” (Concat, Ltd., priority 1995, dated 2002).

Series [1] relates to mature, nonreplicating cultures of HFF (human foreskin fibroblasts). Kind of series: Toxicity toward nonproliferating mammalian cells in vitro. The class given is cell-based. As to conditions: 0.3 mM, nonreplicating HFF in maintenance media, five-day period of observation.
Series [2] can be described thus: Subacute toxicity, repeated intravenous doses to rats. The class given is in vivo, Sprague Dawley rats. As to conditions: 0.05 millimoles per kg i.v. on 10 days. An excerpt:
Ten male Sprague Dawley rats 29 days old and weighing between 73.4 and 87.8 grams at the beginning of the experiment were randomized, employing the block stratification method, into two groups consisting of five rats each. On each of days 1, 2, 3, 6, 7, 8, 9, 10, 13 and 14 of the experiment one set of rats received an intravenous dose of N,N′,N″-tris(dihydroxyphosphorylmethyl)-1,4,7-triazacyclononane (Example 1 C in U.S. Pat. No. 5,236,695) equal to 0.05 millimoles per kg of initial body weight (experimental group) while the other group received an equivalent volume of normal saline solution. The weights of the animals were recorded three times per week and the animals were sacrificed on the 28th day, major organs removed and weighed and tissues removed for microscopic examination.

Series [3] is described as follows: Acute in vivo toxicity, single intravenous dose to mice. As to conditions: 4.0 mM/kg single intravenous dose, survival for over 14 days. The protocol: This example illustrates the low in vivo toxicity of a representative ligand administer intravenously to mice.
This in vivo LD50 toxicity dose results in an instantaneous in vivo concentration which is orders of magnitude greater than the dose of this agent which inhibits mammalian cell replication in vitro (0.009 mM/L).

For the compound `O=P(O)(O)CN1CCN(CP(=O)(O)O)CCN(CP(=O)(O)O)CC1` [N,N′,N″-tris(dihydroxyphosphorylmethyl)-1,4,7-triazacyclononane], the “effect on resting cells” value in series [1] was “no effect”. For the same compound, the “weight or rate of weight gain, experimental vs control group” value in series [2] (injection period and two-week post-injection period) is reported as “no statistically significant difference”. Besides, in series [2] (necropsy on the 28th day), the “microscopic examination of tissues, experimental vs control group” value is on record as “no differences”. The “weights of major organs, experimental vs control group” value in series [2] (sacrificed on the 28th day) is on record as “no differences”.

In the case of `O=P(O)(O)CN1CCN(CP(=O)(O)O)CCN(CP(=O)(O)O)CC1` [N,N′,N″-tris-(dihydroxyphosphorylmethyl)-1,4,7-triazacyclononane], the mice surviving entry in series [3] is reported as “Over 50%”.
